Values of other authors in patent US11905435B2, “Antimicrobial additive compositions for coatings” (PEGASUS ENVIRONMENTAL RESEARCH AND INVESTMENT GROUP LLC, priority 2020, dated 2024).

Legend:
[1] = tested on: enteric bacteria; details: Bailey et al. [5]
[2] = tested on: Saccharomyces cerevisiae yeast; details: Reeder et al. [7]
[3] = tested on: Pityrosporum ovale; details: Imokawa et al. [6]

Row | Compound | antibacterial effects on enteric bacteria [1] | anti-yeast effect on Saccharomyces cerevisiae [2] | antifungal effects on Pityrosporum ovale [3]
1 | OB(O)O [boric acid] | antibacterial effects | – | –
2 | zinc pyrithione [CP] | – | anti-yeast effect | antifungal effects
